# Tests used:
# Bile salt export pump = Bile salt export pump (Homo sapiens, UniProt O95342); type: functional
# [1] = target: T1, 5-hydroxytryptamine receptor 2C (Homo sapiens, UniProt P28335)
# T1 sequence (P28335 whole entry): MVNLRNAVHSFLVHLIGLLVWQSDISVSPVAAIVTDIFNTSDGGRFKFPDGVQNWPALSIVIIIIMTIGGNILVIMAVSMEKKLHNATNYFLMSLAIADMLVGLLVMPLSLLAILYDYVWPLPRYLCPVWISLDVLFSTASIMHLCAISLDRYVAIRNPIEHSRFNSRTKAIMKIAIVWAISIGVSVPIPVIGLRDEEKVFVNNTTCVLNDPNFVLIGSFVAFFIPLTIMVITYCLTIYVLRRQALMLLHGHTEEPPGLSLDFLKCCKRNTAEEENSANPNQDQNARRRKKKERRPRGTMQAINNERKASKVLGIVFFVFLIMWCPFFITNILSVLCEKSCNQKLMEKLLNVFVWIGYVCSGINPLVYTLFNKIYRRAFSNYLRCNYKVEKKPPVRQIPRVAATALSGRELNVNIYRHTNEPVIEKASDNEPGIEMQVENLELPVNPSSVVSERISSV
# [2] = target: cGMP-inhibited 3',5'-cyclic phosphodiesterase 3A (Homo sapiens, UniProt Q14432); type: functional
# cGMP-inhibited 3',5'-cyclic phosphodiesterase 3A, sequence (Q14432 whole entry): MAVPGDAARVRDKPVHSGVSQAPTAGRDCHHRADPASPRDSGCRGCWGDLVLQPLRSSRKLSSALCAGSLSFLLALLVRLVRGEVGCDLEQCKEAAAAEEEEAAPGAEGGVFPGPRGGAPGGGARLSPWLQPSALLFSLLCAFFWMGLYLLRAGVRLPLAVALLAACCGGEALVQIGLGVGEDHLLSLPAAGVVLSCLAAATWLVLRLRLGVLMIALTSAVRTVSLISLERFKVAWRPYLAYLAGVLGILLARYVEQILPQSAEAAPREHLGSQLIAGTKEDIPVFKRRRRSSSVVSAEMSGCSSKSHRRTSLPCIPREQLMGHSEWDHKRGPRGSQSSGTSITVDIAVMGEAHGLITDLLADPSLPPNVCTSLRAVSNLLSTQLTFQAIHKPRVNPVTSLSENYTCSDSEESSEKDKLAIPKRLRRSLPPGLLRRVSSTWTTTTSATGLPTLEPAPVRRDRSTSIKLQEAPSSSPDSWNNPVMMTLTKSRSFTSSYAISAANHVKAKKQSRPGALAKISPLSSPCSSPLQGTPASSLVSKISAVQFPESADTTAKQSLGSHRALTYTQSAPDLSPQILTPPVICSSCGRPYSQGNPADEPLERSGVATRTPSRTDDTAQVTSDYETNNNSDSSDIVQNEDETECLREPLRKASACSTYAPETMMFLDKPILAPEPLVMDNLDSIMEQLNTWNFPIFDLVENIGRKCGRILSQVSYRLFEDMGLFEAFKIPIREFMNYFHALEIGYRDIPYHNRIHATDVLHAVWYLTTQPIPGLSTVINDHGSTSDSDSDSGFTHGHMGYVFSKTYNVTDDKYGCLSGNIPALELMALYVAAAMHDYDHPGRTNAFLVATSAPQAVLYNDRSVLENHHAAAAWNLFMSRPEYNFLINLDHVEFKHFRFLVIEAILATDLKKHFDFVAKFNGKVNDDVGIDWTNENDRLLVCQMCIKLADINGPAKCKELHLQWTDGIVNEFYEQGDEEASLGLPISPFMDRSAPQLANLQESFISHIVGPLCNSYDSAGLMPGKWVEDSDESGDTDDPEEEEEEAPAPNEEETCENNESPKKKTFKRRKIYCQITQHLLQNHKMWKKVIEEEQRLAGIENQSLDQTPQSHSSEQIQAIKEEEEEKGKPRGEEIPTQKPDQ
# [3] = target: T2, Alpha-2C adrenergic receptor (Homo sapiens, UniProt P18825); type: functional
# T2 sequence (P18825 whole entry): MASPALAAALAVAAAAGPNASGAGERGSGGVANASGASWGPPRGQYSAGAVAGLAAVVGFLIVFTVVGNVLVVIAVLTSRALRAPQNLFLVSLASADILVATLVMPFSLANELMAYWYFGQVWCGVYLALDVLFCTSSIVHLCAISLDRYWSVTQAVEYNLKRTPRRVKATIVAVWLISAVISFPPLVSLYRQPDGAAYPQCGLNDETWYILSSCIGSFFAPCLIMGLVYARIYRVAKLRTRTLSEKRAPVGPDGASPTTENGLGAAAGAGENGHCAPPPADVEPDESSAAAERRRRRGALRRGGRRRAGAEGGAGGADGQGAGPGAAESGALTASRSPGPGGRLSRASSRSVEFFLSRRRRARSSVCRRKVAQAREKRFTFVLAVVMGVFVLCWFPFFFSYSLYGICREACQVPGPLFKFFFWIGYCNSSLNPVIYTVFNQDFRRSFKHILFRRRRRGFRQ
# [4] = target: Sodium-dependent dopamine transporter (Homo sapiens, UniProt Q01959)
# Sodium-dependent dopamine transporter, sequence (Q01959 whole entry): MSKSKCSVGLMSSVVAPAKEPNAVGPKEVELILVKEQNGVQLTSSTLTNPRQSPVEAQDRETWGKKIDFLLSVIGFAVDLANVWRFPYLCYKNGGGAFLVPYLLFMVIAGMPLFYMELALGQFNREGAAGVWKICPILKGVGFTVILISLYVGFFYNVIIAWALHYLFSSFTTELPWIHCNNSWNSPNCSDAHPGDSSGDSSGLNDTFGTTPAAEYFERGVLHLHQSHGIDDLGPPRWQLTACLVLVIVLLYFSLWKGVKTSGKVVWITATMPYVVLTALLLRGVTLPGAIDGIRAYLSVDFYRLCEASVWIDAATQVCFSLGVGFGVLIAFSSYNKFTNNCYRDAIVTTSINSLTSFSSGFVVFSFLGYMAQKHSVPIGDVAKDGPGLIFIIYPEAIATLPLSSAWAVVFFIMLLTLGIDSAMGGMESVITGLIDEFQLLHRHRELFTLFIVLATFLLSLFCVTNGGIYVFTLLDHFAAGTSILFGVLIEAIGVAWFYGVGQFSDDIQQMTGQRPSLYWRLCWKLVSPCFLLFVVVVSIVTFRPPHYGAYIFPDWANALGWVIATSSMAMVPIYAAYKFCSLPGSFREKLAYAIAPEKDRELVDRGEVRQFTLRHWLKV
# [5] = target: Beta-2 adrenergic receptor (Homo sapiens, UniProt P07550)
# Beta-2 adrenergic receptor, sequence (P07550 whole entry): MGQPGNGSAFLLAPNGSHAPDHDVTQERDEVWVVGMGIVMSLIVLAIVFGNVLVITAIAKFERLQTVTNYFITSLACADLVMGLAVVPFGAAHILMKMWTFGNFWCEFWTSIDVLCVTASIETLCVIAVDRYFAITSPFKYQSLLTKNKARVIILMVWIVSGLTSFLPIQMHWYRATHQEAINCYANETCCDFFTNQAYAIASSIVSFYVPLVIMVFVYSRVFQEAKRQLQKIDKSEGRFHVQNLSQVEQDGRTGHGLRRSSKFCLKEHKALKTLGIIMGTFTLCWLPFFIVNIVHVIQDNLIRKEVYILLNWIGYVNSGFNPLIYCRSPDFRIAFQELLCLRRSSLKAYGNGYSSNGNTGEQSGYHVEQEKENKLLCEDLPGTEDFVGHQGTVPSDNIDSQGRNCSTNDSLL
# [6] = target: T3, Alpha-2A adrenergic receptor (Homo sapiens, UniProt P08913); type: functional, cell-based
# T3 sequence (P08913 whole entry): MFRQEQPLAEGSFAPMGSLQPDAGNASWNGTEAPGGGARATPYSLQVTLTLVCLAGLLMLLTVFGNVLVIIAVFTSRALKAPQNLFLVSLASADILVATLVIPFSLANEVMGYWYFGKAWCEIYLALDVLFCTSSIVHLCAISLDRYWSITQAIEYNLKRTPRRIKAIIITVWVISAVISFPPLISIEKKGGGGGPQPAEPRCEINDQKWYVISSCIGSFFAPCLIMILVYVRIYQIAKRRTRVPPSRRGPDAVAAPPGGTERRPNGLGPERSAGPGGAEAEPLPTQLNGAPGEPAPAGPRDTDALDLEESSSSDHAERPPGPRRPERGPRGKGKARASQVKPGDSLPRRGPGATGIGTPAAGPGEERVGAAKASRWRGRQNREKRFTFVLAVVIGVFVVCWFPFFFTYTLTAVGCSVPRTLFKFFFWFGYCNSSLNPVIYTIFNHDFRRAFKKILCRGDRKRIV
# [7] = target: T4, Prostaglandin G/H synthase 1 (Rattus norvegicus, UniProt Q63921); type: functional
# T4 sequence (Q63921 whole entry): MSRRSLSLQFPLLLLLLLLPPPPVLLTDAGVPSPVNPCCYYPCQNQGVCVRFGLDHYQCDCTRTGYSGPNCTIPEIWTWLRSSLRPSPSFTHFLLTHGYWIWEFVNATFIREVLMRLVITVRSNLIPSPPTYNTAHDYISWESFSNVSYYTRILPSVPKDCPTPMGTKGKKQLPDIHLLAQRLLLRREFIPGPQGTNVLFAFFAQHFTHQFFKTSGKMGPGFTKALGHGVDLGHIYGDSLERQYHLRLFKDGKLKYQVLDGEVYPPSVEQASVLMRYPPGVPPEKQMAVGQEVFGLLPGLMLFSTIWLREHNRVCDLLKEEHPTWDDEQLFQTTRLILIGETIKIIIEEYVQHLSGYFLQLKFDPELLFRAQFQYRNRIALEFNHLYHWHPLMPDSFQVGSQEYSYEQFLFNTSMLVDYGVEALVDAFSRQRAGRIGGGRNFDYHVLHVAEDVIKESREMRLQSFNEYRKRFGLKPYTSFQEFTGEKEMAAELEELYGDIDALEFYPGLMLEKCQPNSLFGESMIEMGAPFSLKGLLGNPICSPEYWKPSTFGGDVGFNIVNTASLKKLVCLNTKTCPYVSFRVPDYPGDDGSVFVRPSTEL
# Further: assay procedure not described here.
# Bile salt export pump, sequence (O95342 whole entry): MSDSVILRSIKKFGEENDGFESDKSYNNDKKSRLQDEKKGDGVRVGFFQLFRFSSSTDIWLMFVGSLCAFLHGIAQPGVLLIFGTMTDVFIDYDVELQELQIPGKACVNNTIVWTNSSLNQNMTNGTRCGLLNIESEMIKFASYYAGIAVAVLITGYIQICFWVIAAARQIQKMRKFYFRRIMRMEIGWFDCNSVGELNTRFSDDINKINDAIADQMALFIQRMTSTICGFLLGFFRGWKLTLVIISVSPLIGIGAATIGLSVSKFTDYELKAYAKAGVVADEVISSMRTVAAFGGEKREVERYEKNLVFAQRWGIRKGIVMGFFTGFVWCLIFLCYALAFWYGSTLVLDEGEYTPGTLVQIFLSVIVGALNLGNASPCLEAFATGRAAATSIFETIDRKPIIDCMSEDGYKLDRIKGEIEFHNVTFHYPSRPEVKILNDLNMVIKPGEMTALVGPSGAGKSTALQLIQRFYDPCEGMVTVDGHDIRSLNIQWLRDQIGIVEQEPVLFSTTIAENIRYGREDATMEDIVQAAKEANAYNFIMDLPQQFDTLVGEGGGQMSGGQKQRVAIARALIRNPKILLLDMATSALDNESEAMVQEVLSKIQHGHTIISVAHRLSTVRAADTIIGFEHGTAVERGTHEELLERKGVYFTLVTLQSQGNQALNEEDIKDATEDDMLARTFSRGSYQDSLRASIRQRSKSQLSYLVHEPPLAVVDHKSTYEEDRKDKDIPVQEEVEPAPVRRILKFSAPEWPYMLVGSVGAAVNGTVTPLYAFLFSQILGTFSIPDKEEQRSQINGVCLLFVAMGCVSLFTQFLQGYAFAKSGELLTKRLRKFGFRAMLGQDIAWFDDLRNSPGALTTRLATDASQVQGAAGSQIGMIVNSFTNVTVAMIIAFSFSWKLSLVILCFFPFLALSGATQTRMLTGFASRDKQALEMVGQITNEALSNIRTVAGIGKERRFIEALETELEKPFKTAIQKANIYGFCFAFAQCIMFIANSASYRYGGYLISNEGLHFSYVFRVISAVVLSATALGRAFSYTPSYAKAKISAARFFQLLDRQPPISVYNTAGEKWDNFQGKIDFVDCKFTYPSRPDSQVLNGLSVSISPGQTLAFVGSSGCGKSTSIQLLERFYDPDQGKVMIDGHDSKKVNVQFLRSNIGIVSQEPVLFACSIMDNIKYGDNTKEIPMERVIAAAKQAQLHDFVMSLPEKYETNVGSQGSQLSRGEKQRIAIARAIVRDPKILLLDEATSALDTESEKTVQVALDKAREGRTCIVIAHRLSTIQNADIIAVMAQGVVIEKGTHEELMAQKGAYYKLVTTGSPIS
SMILES,AC50 (Bile salt export pump) [µM],AC50 [1] [µM],AC50 [2] [µM],AC50 [3] [µM],AC50 [4] [µM],AC50 [5] [µM],AC50 [6] [µM],AC50 [7] [µM]
CCOc1nc2cccc(C(=O)O)c2n1Cc1ccc(-c2ccccc2-c2nnn[nH]2)cc1,100,14,13,> 30,> 30,> 10,> 30,> 30
CCCc1nc2c(C)cc(-c3nc4ccccc4n3C)cc2n1Cc1ccc(-c2ccccc2C(=O)O)cc1,5,> 30,> 30,12.5,> 30,> 30,3.96,> 30
CC(=O)Nc1ccc(CC(=O)O)cc1 [ACTARIT],> 300,> 30,> 30,> 30,> 30,> 30,> 30,> 30
CC=CC1=C(C(=O)O)N2C(=O)[C@@H](NC(=O)[C@H](N)c3ccc(O)cc3)[C@H]2SC1 [CEFPROZIL],> 300,> 30,> 30,> 30,> 30,> 30,> 30,13.7
CCCNC(=O)NS(=O)(=O)c1ccc(Cl)cc1 [CHLORPROPAMIDE],> 300,> 30,> 30,> 10,> 30,> 10,> 10,> 30
Cc1nc(Nc2ncc(C(=O)Nc3c(C)cccc3Cl)s2)cc(N2CCN(CCO)CC2)n1 [DASATINIB],22,14.1,> 30,19,25.3,> 10,> 10,> 30
Cc1ccc(C)c(OCCCC(C)(C)C(=O)O)c1 [GEMFIBROZIL],> 300,> 30,> 30,> 10,> 10,> 10,> 10,> 30
CCCCCCCN(CC)CCCC(O)c1ccc(NS(C)(=O)=O)cc1 (stereo not given) [IBUTILIDE],> 300,> 30,> 30,3.2,> 30,> 30,> 30,> 30
CC[C@H](C)C(=O)O[C@H]1C[C@@H](C)C=C2C=C[C@H](C)[C@H](CC[C@@H]3C[C@@H](O)CC(=O)O3)[C@H]21 [LOVASTATIN],27,> 30,> 30,> 10,> 10,> 10,> 10,> 30
CC[C@@H](CO)NC(=O)[C@@H]1C=C2c3cccc4c3c(cn4C)C[C@H]2N(C)C1 [METHYSERGIDE],180,0.0082,> 30,3.5,> 30,> 10,11,> 30
CNC(=C[N+](=O)[O-])NCCSCc1csc(CN(C)C)n1 [NIZATIDINE],> 300,> 30,> 30,> 10,> 10,> 10,> 10,> 10
CCCc1cc(=O)[nH]c(=S)[nH]1 [PROPYLTHIOURACIL],> 300,> 30,> 30,> 10,> 10,> 10,> 10,6.6
Cn1cc(C(=O)[C@@H]2CCc3nc[nH]c3C2)c2ccccc21 [RAMOSETRON],> 300,> 30,> 30,11,> 30,> 30,4.3,> 30
CN(CCOc1ccc(CC2SC(=O)NC2=O)cc1)c1ccccn1 (stereo not given) [ROSIGLITAZONE],1,> 30,> 30,> 30,> 30,> 30,8.6,> 30
CC(C)[C@H](N)C(=O)OCCOCn1cnc2c(=O)[nH]c(N)nc21 [VALACYCLOVIR],> 300,> 30,> 30,> 10,> 10,> 10,> 10,> 30
